BigSolDB 2.1

`O=c1cc[nH]c(=O)[nH]1` showed a solubility (mole fraction) (in ethanol, 283.15 K) of 7.7e-05, a solubility (mole fraction) (in ethanol, 288.15 K) of 9.1e-05 and a solubility (mole fraction) (in ethanol, 293.15 K) of 0.000113. It also gave a solubility (mole fraction) (in ethanol, 298.15 K) of 0.000135, a solubility (mole fraction) (in ethanol, 303.15 K) of 0.000166 and a solubility (mole fraction) (in ethanol, 308.15 K) of 0.000212. For the same compound, the solubility (mole fraction) (in ethanol, 313.15 K) was 0.000248, the solubility (mole fraction) (in ethanol, 318.15 K) was 0.000296 and the solubility (mole fraction) (in isopropanol, 283.15 K) was 6.6e-05. It also gave a solubility (mole fraction) (in isopropanol, 288.15 K) of 7.6e-05, a solubility (mole fraction) (in isopropanol, 293.15 K) of 0.000105 and a solubility (mole fraction) (in isopropanol, 298.15 K) of 0.00014. The solubility (mole fraction) (in isopropanol, 303.15 K) was 0.000169, the solubility (mole fraction) (in isopropanol, 308.15 K) was 0.000216 and the solubility (mole fraction) (in isopropanol, 313.15 K) was 0.000245. The solubility (mole fraction) (in isopropanol, 318.15 K) was 0.000281, the solubility (mole fraction) (in methanol, 283.15 K) was 0.000152 and the solubility (mole fraction) (in methanol, 288.15 K) was 0.000166. The solubility (mole fraction) (in methanol, 293.15 K) was 0.000206, the solubility (mole fraction) (in methanol, 298.15 K) was 0.000253 and the solubility (mole fraction) (in methanol, 303.15 K) was 0.000307. It also gave a solubility (mole fraction) (in methanol, 308.15 K) of 0.000362, a solubility (mole fraction) (in methanol, 313.15 K) of 0.000414 and a solubility (mole fraction) (in methanol, 318.15 K) of 0.000519. The solubility (mole fraction) (in water, 283.15 K) was 0.000166, the solubility (mole fraction) (in water, 288.15 K) was 0.000209 and the solubility (mole fraction) (in water, 293.15 K) was 0.000264. The solubility (mole fraction) (in water, 298.15 K) was 0.000332, the solubility (mole fraction) (in water, 303.15 K) was 0.00042 and the solubility (mole fraction) (in water, 308.15 K) was 0.000513. For the same compound, the solubility (mole fraction) (in water, 313.15 K) was 0.000613 and the solubility (mole fraction) (in water, 318.15 K) was 0.000738.
